System: heme oxygenase
Assay: microsomal heme oxygenase activity in CCD-860SK skin fibroblast cells
Format: cell-based, human
Conditions: 100 μM; CCD-860 skin fibroblast cells, collected after two hours; mean ± SD; control 294 ± 18
Experimental: Cell line CCD-860SK is a human skin fibroblast cell line which is publicly available from the American Type Culture Collection. Cell cultures of this line were propagated in Iscove's modified Dulbecco's medium supplemented with 10% fetal bovine […]. Following propagation, they were grown in 175 cm^2 Falcon tissue culture flasks, using Iscove's modified Dulbecco's medium, supplemented with 10% (v/v) heat inactivated fetal bovine serum, 50 U penicillin/ml, 50 ug streptomycin/ml, and 2 mM glutamine. The cells were then seeded into culture flasks at a concentration of 1×10^5 cells/ml, and incubated at 37° C. in a humidified 5% CO2 /95% air chamber. After three days, old media were removed, and replaced with fresh media. […]
To measure total enzyme activity, microsomes were prepared as described by Tenhunen et al., J. Biol. Chem. 244: 6388-6394 (1969), incorporated by reference herein. The activity of microsomal heme oxygenase was then determined, using 0.5-1 mg protein in an incubation medium as described by Tenhunen et al., supra. Total protein was then determined using the classic method of Lowry et al., J. Biol. Chem. 193: […] (1951), using bovine serum albumin as standard.

[Cl][Sn][Cl] [SnCl2]
Heme oxygenase: 802 ± 49 pmol bilirubin/mg/hr

— patent US5783201A, “Method for treating non-ocular epithelial disorders via increasing heme oxygenase levels and/or decreasing levels of arachidonic acid derivatives” (Hemogen, Inc., priority 1997, dated 1998)
